Molecular target: T1, thrombin (Bos taurus, UniProt P00735)
T1 construct: purchased Sigma T-3399
Experiment: biological assay for thrombin inhibitory activity (fluorogenic substrate)
Type: biochemical
Details: for inhibition at 50 µM: test probe concentration 50 μM; for inhibition at 100 µM: test probe concentration 100 μM
Protocol: The biological assay (28320) for thrombin inhibitory activity is detailed below. To Nunc 96-well black fluorescence plate wells is added 70 microliters of assay buffer, followed by 10 microliters of 1 millimolar substrate solution. Test probe (10 microliters in 30% DMSO) is then added to wells according to the desired concentrations for the assay. The mixture is incubated at 37° C. for 5 minutes, followed by addition of 10 microliters of thrombin (100 micrograms/mL in assay buffer), to make a final assay volume of 100 microliters. The plate is mixed gently and incubated 15 minutes at 37° C. Stop buffer (100 microliters) is added, and the plate is read by detecting emission at 460 nm. Percent inhibition of test compound is calculated by comparison with control wells. “Assay buffer” is composed of 100 mM KH2PO4, 100 mM Na2HPO4, 1 mM EDTA, 0.01% BRIJ-35, and 1 mM dithiothreitol (added fresh on the day assay is preformed). “Stop buffer” is composed of 100 mM Na—O(O)CCH2Cl and 30 mM sodium acetate which is brought to pH 2.5 with glacial acetic acid. Thrombin was purchased from Sigma (cat #T-3399). Thrombin substrate III fluorogenic was purchased from ICN (cat #195915). Sodium acetate, dithiothreitol, and Brij-35 were purchased from Sigma. Sodium monochloroacetate was purchased from Lancaster 223-498-3. Glacial acetic acid was purchased from Alfa Aesar (cat #33252). Thrombin was stored at −20° C. Thrombin substrate fluorogenic was stored at −20° C. (5 mM in DMSO).
Results are expressed as percentage inhibition at a given test probe concentration in the Table below;

inhibition at 50 µM [%]	inhibition at 100 µM [%]	SMILES
10 to 39	40 to 74	COc1ccc(CNC(=O)c2cc(Cl)ccc2NC(=O)c2n[nH]c3ccccc23)cc1OC [Example B1]
10 to 39	40 to 74	CCCCN(CCCC)CCCNC(=O)c1cc(Cl)ccc1NC(=O)c1n[nH]c2ccccc12 [Example B2]
10 to 39	40 to 74	C[C@@H](NC(=O)C(NC(=O)c1n[nH]c2ccccc12)C1CCNCC1)c1ccccc1 (stereo partly drawn) [Example B3]

From patent US20110039714A1, “Probes, Systems, and Methods for Drug Discovery” (priority 2001, published 2011)
